The values below come from PMC8921294, “Inhibition of mitochondrial LonP1 protease by allosteric blockade of ATP binding and hydrolysis via CDDO and its derivatives” (The Journal of Biological Chemistry, 2022).

The target of test [1] is T1, LonP1 C576V (Homo sapiens, UniProt P36776, C576V).
T1 construct: hexa-histidine (N); made in house; host or cells: Rosetta 2 E. coli
T1 sequence (P36776 68-959 C576V): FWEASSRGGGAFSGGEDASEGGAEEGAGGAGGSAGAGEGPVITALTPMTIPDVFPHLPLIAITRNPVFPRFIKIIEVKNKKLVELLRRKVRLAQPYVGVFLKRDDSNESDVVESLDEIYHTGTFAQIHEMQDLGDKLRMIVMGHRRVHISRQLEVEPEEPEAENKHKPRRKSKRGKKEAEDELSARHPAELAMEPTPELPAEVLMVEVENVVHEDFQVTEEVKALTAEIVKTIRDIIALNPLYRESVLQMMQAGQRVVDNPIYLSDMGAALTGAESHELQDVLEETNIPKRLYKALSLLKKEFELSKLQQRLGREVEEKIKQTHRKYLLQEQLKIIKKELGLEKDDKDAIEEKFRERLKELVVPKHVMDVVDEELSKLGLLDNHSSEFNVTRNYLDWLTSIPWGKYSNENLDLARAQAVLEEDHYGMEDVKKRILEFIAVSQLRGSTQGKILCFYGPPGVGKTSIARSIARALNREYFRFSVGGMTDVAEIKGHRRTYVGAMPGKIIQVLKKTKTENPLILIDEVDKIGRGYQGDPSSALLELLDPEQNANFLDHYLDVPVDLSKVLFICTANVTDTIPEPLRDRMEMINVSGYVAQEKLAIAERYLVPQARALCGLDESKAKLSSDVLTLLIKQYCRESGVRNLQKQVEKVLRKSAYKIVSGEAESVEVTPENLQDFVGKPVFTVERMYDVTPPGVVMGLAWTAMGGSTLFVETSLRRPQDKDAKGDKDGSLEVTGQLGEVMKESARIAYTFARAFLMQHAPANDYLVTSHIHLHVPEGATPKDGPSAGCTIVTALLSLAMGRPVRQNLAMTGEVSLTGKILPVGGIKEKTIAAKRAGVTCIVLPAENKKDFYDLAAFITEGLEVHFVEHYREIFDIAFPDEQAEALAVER
In words: Endpoint ATPase assay, LonP1 C576V. It counts as biochemical. On the procedure: (§1) Human mitochondrial LonP1 and mutants lacking the predicted mitochondrial targeting sequence were fused to an N-terminal hexa-histidine affinity tag, expressed in Rosetta 2 E. Coli, and purified using a nickel agarose column as previously described ([72]) and protein concentration and buffer exchange carried out using Amicon Ultra centrifugal filtration. LonP1 mutant constructs were obtained from the PCR-based QuikChange Site-Directed Mutagenesis Kit.
(§2) ADP-Glo (Promega) assays were performed according to the manufacturer's protocols. Purified wild-type or mutant LonP1 (400 nM monomer), the 26S proteasome (3 nM), or no enzyme controls were preincubated in 96-well plates (60 min, 25 °C) with ten different concentrations of CDDO and its derivatives, TP-82, enoxolone (5 μM) or DMSO vehicle control in buffer (40 mM Tris-HCl (pH 7.5), 20 mM MgCl2, 0.1 mg/ml BSA and 5% DMSO). The 26S and 20S proteasome were also assayed at 0, 0.75, 1.5, 3, 6, and 12 nM in the absence of CDDO derivatives. […] Assay reagents were used to quench further ATPase activity and generate luminescence signals proportional to the concentration of ADP formed. Background (no enzyme control) luminescence values were subtracted, and resultant values were reported as a percentage of the no drug control (100%). […]

Test [2] concerns the target T2, LonP1 C576S (Homo sapiens, UniProt P36776, C576S).
T2 construct: hexa-histidine (N); made in house; host or cells: Rosetta 2 E. coli
T2 sequence (P36776 68-959 C576S): T1 sequence (P36776 68-959 C576V) with V509S
The test can be described thus: Endpoint ATPase assay, LonP1 C576S. It counts as biochemical. How it is done:
as §1, §2

Where a chain is given by its changes, count along the chain named.

Broadly, the IC50 is the concentration that gives 50% inhibition. For `CC1(C)CC[C@]2(C(=O)O)CC[C@]3(C)[C@H](C(=O)C=C4[C@@]5(C)C=C(C#N)C(=O)C(C)(C)[C@@H]5CC[C@]43C)[C@@H]2C1` [CDDO, 2-cyano-3,12-dioxooleana-1,9(11)-dien-28-oic acid], the results for the “Fold increase in inhibition compared with WT” value in test [1] and in test [2] were 2.7 and 1.2, respectively. The IC50 worked out at 5.2 ± 1.5 µM in test [1] (end-point ATPase assay, read-out: CDDO IC50) and 11.9 µM in test [2] (end-point ATPase assay, N = 1, read-out: CDDO IC50).
